Some test systems named below: M19-MEL; HCC 2998; CAKI-1; NCI-H522; EKVX; U-251; UO-31; NCI-H226; ACHN; SNB-75; RPMI-8226; Hs-578T; MCF7; PC-3; SK-OV-3; A549; IGROV-1; SF-268; KM-20L2; HCT-116.
Assay in all cases: NCI-60 cell line screen, 48 h

Molecules are shown by their SMILES.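 In this assay, cells in 96-well plates receive the compound at five concentrations for 48 hours. Endpoints are linearly interpolated between the surrounding concentrations. GI50: concentration for 50% inhibition of growth.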 The source made the active and inactive calls. Rule as the data show it: active = GI50 up to about 1.1 µM and inactive = higher.

With `O=C1C(Br)=C(c2ccccc2)C(c2ccccc2)=C1c1ccccc1`, the GI50 in the assay on M19-MEL is 2170 nM (inactive); with HCC 2998 it was 6050 nM (inactive); in the assay with CAKI-1, 2440 nM (inactive); in the assay on NCI-H522, 753 nM (active); with EKVX, 8750 nM (inactive); in the assay with U-251, 3360 nM (inactive). For the same molecule, the GI50 in the assay with UO-31 was 5500 nM (inactive); with NCI-H226 it was 8430 nM (inactive); in the assay on ACHN, 2550 nM (inactive); in the assay on SNB-75 it was 3630 nM (inactive); in the assay with RPMI-8226, 1450 nM (inactive); in the assay on Hs-578T, 13700 nM (inactive). In addition, the GI50 with MCF7 was 2400 nM (inactive); with PC-3, 4100 nM (inactive); in the assay on SK-OV-3 it was 15900 nM (inactive); with A549, 13100 nM (inactive); with IGROV-1, 4280 nM (inactive); with SF-268, 3440 nM (inactive). Besides, the GI50 in the assay with KM-20L2 was 4780 nM (inactive); in the assay with HCT-116 it was 1900 nM (inactive).

For `COc1cc2c(c(OC)c1OC)-c1ccc(OC)c(=O)cc1[C@@H](NC(=O)c1ccccc1)CC2`, the GI50 in the assay on M19-MEL is < 10 nM (active); in the assay with HCC 2998, 16.2 nM (active); in the assay with CAKI-1, 20.6 nM (active); in the assay on NCI-H522 it was 11.4 nM (active); with EKVX, 5150 nM (inactive); in the assay with U-251, 14.7 nM (active). Besides, the GI50 in the assay on UO-31 is 449 nM (active); in the assay with NCI-H226, 67 nM (active); with ACHN, 30.5 nM (active); with SNB-75 it was < 32.7 nM (active); with RPMI-8226, 60.8 nM (active); in the assay with Hs-578T, < 12.6 nM (active). In addition, the GI50 in the assay with MCF7 is < 14.6 nM (active); in the assay with PC-3, 16.9 nM (active); in the assay with SK-OV-3, 64.6 nM (active); in the assay on A549, 18 nM (active); in the assay with IGROV-1 it was 14.6 nM (active); in the assay with SF-268, 15.4 nM (active). The GI50 with KM-20L2 is < 10 nM (active); in the assay on HCT-116, 12.6 nM (active).

The record behind these values is ChEMBL document CHEMBL1201862, “PubChem BioAssay data set” (2004).
